Experimental data reported in patent US20250388582A1, “NOVEL BICYCLIC HETEROARYL COMPOUND AND USE THEREOF” (ILDONG PHARMACEUTICAL CO., LTD., priority 2022, published 2025).

Key:
[1] = biological target: T1, PIKFYVE (Homo sapiens, UniProt Q9Y2I7); experiment: NanoBRET TE Intracellular Kinase Assay, interaction of PIKFYVE and compounds in HEK293 cells; assay type: cell-based; conditions: IC50 class from BRET; HEK293 cells expressing PIKFYVE-NanoLuc; 2 hours incubation
T1 construct: host or cells: HEK293 (ATCC, CRL-1573)
Method in brief: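 HEK293 cells transiently expressing a PIKFYVE-NanoLuc fusion were incubated 2 h at 37 °C, 5% CO2 with compound plus NanoBRET tracer. BRET was read after adding Nano-Glo substrate, giving intracellular target engagement by tracer displacement.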

[2] = Microsomal metabolic stability assay; assay type: in vitro ADME, human or CD1 male mouse; conditions: Clint class; 1 μM compound, 0.5 mg/ml microsomes, NADPH, UDPGA, Alamethicin; species not given
Procedure: The microsomal metabolic stability assay was performed using pooled human or CD1 male mouse interspecies microsomes. Supplemental cofactors (NADPH, UDPGA) and microsomal membrane pore-forming factor (Alamethicin) were added to promote cytochrome P450 (CYP), UGT reactivity to the target compound. Test compounds (1 μM incubation concentration) and microsomes (0.5 mg/ml incubation concentration) were diluted in 0.1 M phosphate buffer, pH 7.4, and incubated (37° C.). The reaction was initiated by the addition of NADPH (1 mM), UDPGA (1 mM) and Alamethicin (25 μg/mg). The incubation times were 0, 5, 15, 30, and 45 minutes, and at each time point, the reaction was terminated by adding acetonitrile containing internal standard (IS)(1:3 ratio). The plate was then sealed, centrifuged (3000 rpm, 20 min, 4° C.), and the supernatant was analyzed by LC-MS/MS. Hepatic extraction ratio values were calculated from the measured in vitro clearance and Intrinsic clearance (Clint) values were calculated from the assay results, and the respective Clint values were categorized into Low, Medium, and High categories based on the reference document (ref. Prostaglandins & other lipid mediators 136 (2018): 90-95).

[3] = biological target: T2, human GST-PIKFYVE (Homo sapiens, UniProt Q9Y2I7); experiment: ADP-Glo kinase assay, enzyme inhibition activity against human PIKFYVE (Carna biosciences); assay type: biochemical; conditions: inhibitory activity at final compound concentration 10 nM; 1 hour at room temperature
T2 construct: GST; purchased Carna biosciences 11-118
Method in brief: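 Human GST-PIKFYVE (glutathione Sepharose-purified) was reacted with substrate and ATP for 1 h at room temperature in 50 mM MOPS, 1 mM DTT, pH 7.2, with compound at 10 nM final. ADP formed was read by ADP-Glo luminescence; inhibition was calculated against no-enzyme (100%) and no-compound (0%) controls.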

T1 sequence (Q9Y2I7 whole entry): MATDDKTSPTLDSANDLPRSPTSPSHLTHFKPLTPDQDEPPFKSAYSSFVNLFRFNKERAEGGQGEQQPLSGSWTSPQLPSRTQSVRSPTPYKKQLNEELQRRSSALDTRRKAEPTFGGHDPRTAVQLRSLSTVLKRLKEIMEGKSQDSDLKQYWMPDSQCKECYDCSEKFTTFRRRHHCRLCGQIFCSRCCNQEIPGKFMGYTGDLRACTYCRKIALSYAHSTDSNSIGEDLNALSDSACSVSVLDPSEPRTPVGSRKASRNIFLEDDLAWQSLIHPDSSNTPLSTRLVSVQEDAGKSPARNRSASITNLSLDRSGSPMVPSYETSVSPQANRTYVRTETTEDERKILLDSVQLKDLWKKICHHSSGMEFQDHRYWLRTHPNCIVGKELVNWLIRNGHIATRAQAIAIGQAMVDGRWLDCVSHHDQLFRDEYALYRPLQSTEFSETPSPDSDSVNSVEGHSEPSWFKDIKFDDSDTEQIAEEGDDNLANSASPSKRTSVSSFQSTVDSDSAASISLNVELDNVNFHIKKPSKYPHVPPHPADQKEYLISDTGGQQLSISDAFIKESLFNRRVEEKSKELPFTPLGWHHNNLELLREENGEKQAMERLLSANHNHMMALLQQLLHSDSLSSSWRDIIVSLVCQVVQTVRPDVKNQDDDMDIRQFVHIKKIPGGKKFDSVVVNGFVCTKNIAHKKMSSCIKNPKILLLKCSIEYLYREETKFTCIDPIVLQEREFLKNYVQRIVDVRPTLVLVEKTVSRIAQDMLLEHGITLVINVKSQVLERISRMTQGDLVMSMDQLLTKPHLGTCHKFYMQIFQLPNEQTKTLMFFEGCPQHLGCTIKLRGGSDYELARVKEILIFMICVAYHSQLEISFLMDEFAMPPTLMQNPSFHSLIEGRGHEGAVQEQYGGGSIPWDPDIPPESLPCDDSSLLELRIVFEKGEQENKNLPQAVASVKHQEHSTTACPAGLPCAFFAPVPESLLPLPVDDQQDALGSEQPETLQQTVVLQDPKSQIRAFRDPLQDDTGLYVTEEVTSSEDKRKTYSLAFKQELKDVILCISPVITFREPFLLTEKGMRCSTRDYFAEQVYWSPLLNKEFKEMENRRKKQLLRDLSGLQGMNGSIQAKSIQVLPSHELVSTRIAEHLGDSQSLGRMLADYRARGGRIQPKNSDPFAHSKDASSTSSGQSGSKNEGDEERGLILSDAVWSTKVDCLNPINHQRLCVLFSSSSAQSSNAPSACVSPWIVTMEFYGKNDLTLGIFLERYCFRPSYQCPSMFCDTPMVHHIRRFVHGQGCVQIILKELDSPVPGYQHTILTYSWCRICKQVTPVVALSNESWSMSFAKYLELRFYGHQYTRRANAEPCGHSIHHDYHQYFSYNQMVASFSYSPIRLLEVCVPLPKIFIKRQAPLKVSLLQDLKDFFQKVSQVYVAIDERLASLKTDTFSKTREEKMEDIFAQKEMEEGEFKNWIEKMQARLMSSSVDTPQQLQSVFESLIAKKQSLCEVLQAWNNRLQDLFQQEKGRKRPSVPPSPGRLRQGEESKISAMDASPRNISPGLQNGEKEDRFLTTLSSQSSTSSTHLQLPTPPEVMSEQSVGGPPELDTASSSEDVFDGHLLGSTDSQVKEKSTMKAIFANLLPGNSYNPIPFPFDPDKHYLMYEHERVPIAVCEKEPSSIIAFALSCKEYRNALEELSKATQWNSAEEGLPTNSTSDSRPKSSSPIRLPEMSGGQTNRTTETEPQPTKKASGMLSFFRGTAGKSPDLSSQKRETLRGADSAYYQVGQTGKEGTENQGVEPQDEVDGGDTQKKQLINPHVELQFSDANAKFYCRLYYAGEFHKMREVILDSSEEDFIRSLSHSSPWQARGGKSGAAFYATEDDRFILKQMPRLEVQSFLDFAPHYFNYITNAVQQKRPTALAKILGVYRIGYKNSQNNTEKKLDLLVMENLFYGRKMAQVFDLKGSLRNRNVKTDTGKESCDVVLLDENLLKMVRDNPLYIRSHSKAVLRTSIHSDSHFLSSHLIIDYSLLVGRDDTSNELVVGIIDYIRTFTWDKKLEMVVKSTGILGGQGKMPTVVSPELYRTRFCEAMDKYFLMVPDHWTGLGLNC
T2 sequence (Q9Y2I7 whole entry): as above

In the case of `COc1cccc(-n2cnc3c(N/N=C/c4cccc(C)c4)nc(N4CCOCC4)nc32)c1` [Example 121, (E)-4-(9-(3-methoxyphenyl)-6-(2-(3-methylbenzylidene)hydrazinyl)-9H-purin-2-yl)morpholine], the IC50 [1] is reported as no more than 10 nM, the Microsomal metabolic stability [2] is reported as “Medium (Medium 8.8~48,)” and the “ADP-Glo kinase assay (%, 10 nM)” value [3] is reported as 92.33%.
In the case of `Cc1cccc(/C=N/Nc2nc(N3CCOCC3)nc3c2ncn3-c2cccc(Cl)c2)c1` [Example 122, (E)-4-(9-(3-chlorophenyl)-6-(2-(3-methylbenzylidene)hydrazinyl)-9H-purin-2-yl)morpholine], the IC50 [1] is reported as no more than 10 nM, the Microsomal metabolic stability [2] is reported as “Medium (Medium 8.8~48,)” and the “ADP-Glo kinase assay (%, 10 nM)” value [3] is reported as 87.32%.
With `Cc1cccc(/C=N/Nc2nc(N3CCOCC3)nc3c2ncn3-c2cccc(C#N)c2)c1` [Example 126, (E)-3-(6-(2-(3-methylbenzylidene)hydrazinyl)-2-morpholino-9H-purin-9-yl)benzonitrile] the IC50 [1] was no more than 10 nM, the Microsomal metabolic stability [2] was “Low (Low <8.8,)” and the “ADP-Glo kinase assay (%, 10 nM)” value [3] was 87.21%.
With `Cc1cccc(/C=N/Nc2nc(N3CCOCC3)nc3c2ncn3-c2cccc(C)c2)c1` [Example 127, (E)-4-(6-(2-(3-methylbenzylidene)hydrazinyl)-9-(m-tolyl)-9H-purin-2-yl)morpholine] the IC50 [1] was no more than 10 nM, the Microsomal metabolic stability [2] was “Low (Low <8.8,)” and the “ADP-Glo kinase assay (%, 10 nM)” value [3] was 84.12%.
For `Cc1cccc(/C=N/Nc2nc(N3CCOCC3)nc3c2ncn3-c2cccc(OC(F)(F)F)c2)c1` [Example 128, (E)-4-(6-(2-(3-methylbenzylidene)hydrazinyl)-9-(3-(trifluoromethoxy)phenyl)-9H-purin-2-yl)morpholine], the IC50 [1] was no more than 10 nM, the Microsomal metabolic stability [2] was “Low (Low <8.8,)” and the “ADP-Glo kinase assay (%, 10 nM)” value [3] was 65.10%.
With `Cc1cccc(/C=N/Nc2nc(N3CCOCC3)nc3c2ncn3-c2cccc(F)c2)c1` [Example 129, (E)-4-(9-(3-fluorophenyl)-6-(2-(3-methylbenzylidene)hydrazinyl)-9H-purin-2-yl)morpholine] the IC50 [1] was no more than 10 nM, the Microsomal metabolic stability [2] was “Low (Low <8.8,)” and the “ADP-Glo kinase assay (%, 10 nM)” value [3] was 89.94%.
With `C(=N\Nc1nc(N2CCOCC2)nc2c1ncn2-c1ccccc1)/c1c[nH]c2ccccc12` [Example 132, (E)-4-(6-(2-((1H-indol-3-yl)methylene)hydrazinyl)-9-phenyl-9H-purin-2-yl)morpholine] the IC50 [1] was no more than 10 nM, the Microsomal metabolic stability [2] was “Medium (Medium 8.8~48,)” and the “ADP-Glo kinase assay (%, 10 nM)” value [3] was 86.76%.
With `Cc1cccc(-c2ccn(-c3nc(N4CCOCC4)nc4c3ncn4-c3ccccc3)n2)c1` [Example 136, 4-(9-phenyl-6-(3-(m-tolyl)-1H-pyrazol-1-yl)-9H-purin-2-yl)morpholine] the IC50 [1] was no more than 10 nM, the Microsomal metabolic stability [2] was “Medium (Medium 8.8~48,)” and the “ADP-Glo kinase assay (%, 10 nM)” value [3] was 78.65%.
In the case of `Cc1cccc(/C=N/Nc2nc(N3CCOCC3)nc3c2ncn3-c2ccnc(C(F)(F)F)c2)c1` [Example 139, (E)-4-(6-(2-(3-methylbenzylidene)hydrazinyl)-9-(2-(trifluoromethyl)pyridin-4-yl)-9H-purin-2-yl)morpholine], the IC50 [1] is reported as no more than 10 nM, the Microsomal metabolic stability [2] is reported as “low” and the “ADP-Glo kinase assay (%, 10 nM)” value [3] is reported as 84.50%.
In the case of `Cc1cccc(/C=N/Nc2nc(N3CCOCC3)nc3c2ncn3-c2ccnc(C)c2)c1` [Example 140, (E)-4-(6-(2-(3-methylbenzylidene)hydrazinyl)-9-(2-methylpyridin-4-yl)-9H-purin-2-yl)morpholine], the IC50 [1] is reported as no more than 10 nM, the Microsomal metabolic stability [2] is reported as “Medium (Medium 8.8~48,)” and the “ADP-Glo kinase assay (%, 10 nM)” value [3] is reported as 92.50%.
For `Cc1cccc(/C=N/Nc2nc(N3CCOCC3)nc3c2ncn3-c2cccc(C)n2)c1` [Example 141, (E)-4-(6-(2-(3-methylbenzylidene)hydrazinyl)-9-(6-methylpyridin-2-yl)-9H-purin-2-yl)morpholine], the IC50 [1] was no more than 10 nM, the Microsomal metabolic stability [2] was “medium” and the “ADP-Glo kinase assay (%, 10 nM)” value [3] was 88.29%.
With `Cc1cccc(/C=N/Nc2nc(N3CCOCC3)nc3c2ncn3-c2cc(C)n(C)n2)c1` [Example 147, (E)-4-(9-(1,5-dimethyl-1H-pyrazol-3-yl)-6-(2-(3-methylbenzylidene)hydrazinyl)-9H-purin-2-yl)morpholine] the IC50 [1] was no more than 10 nM, the Microsomal metabolic stability [2] was “Medium (Medium 8.8~48,)” and the “ADP-Glo kinase assay (%, 10 nM)” value [3] was 88.80%.
In the case of `Cc1cccc(/C=N/Nc2nc(N3CCOCC3)nc3c2ncn3-c2ccc(F)cn2)c1` [Example 149, (E)-4-(9-(5-fluoropyridin-2-yl)-6-(2-(3-methylbenzylidene)hydrazinyl)-9H-purin-2-yl)morpholine], the IC50 [1] is reported as no more than 10 nM, the Microsomal metabolic stability [2] is reported as “Medium (Medium 8.8~48,)” and the “ADP-Glo kinase assay (%, 10 nM)” value [3] is reported as 83.75%.
With `Cc1cccc(/C=N/Nc2nc(N3CCOCC3)nc3c2nc(C)n3CC(=O)c2ccccn2)c1` [Example 157, (E)-2-(8-methyl-6-(2-(3-methylbenzylidene)hydrazinyl)-2-morpholino-9H-purin-9-yl)-1-(pyridin-2-yl)ethan-1-one] the IC50 [1] was 10 to 20 nM, the Microsomal metabolic stability [2] was “Medium (Medium 8.8~48,)” and the “ADP-Glo kinase assay (%, 10 nM)” value [3] was 71.16%.
In the case of `Cc1cccc(/C=N/Nc2nc(N3CCOCC3)nc3c2nc(C)n3-c2ccccc2)c1` [Example 165, (E)-4-(8-methyl-6-(2-(3-methylbenzylidene)hydrazinyl)-9-phenyl-9H-purin-2-yl)morpholine], the IC50 [1] is reported as 10 to 20 nM, the Microsomal metabolic stability [2] is reported as “medium” and the “ADP-Glo kinase assay (%, 10 nM)” value [3] is reported as 73.72%.
For `Cc1cccc(/C=N/n2cnc3c(Nc4ccncc4)nc(N4CCOCC4)nc32)c1` [Example 166, (E)-9-((3-methylbenzylidene)amino)-2-morpholino-N-(pyridin-4-yl)-9H-purin-6-amine], the IC50 [1] was no more than 10 nM, the Microsomal metabolic stability [2] was “medium” and the “ADP-Glo kinase assay (%, 10 nM)” value [3] was 90.77%.
With `Cc1cccc(/C=N/Nc2nc(N3CCOCC3)nc3c2ncn3-c2cccc(N(C)C)c2)c1` [Example 202, (E)-N,N-dimethyl-3-(6-(2-(3-methylbenzylidene)hydrazinyl)-2-morpholino-9H-purin-9-yl)aniline] the IC50 [1] was no more than 10 nM, the Microsomal metabolic stability [2] was “low” and the “ADP-Glo kinase assay (%, 10 nM)” value [3] was 80.47%.
For `Cc1cccc(/C=N/Nc2nc(N3CCOCC3)nc3c(-c4cnn(C)c4)cccc23)c1` [Example 209, (E)-4-(8-(1-methyl-1H-pyrazol-4-yl)-4-(2-(3-methylbenzylidene)hydrazinyl)quinazolin-2-yl)morpholine], the IC50 [1] was no more than 10 nM, the Microsomal metabolic stability [2] was “medium” and the “ADP-Glo kinase assay (%, 10 nM)” value [3] was 94.99%.
In the case of `Cc1cccc(/C=N/Nc2nc(N3CCOCC3)nc3c(-c4ccncc4)cccc23)c1` [Example 212, (E)-4-(4-(2-(3-methylbenzylidene)hydrazinyl)-8-(pyridin-4-yl)quinazolin-2-yl)morpholine], the IC50 [1] is reported as no more than 10 nM, the Microsomal metabolic stability [2] is reported as “Low (Low <8.8,)” and the “ADP-Glo kinase assay (%, 10 nM)” value [3] is reported as 88.34%.
In the case of `Cc1cccc(/C=N/Nc2nc(N3CCOCC3)nc3c(-c4cccnc4)cccc23)c1` [Example 215, (E)-4-(4-(2-(3-methylbenzylidene)hydrazinyl)-8-(pyridin-3-yl)quinazolin-2-yl)morpholine], the IC50 [1] is reported as no more than 10 nM, the Microsomal metabolic stability [2] is reported as “Medium (Medium 8.8~48,)” and the “ADP-Glo kinase assay (%, 10 nM)” value [3] is reported as 81.70%.
